Among the data in PubChem BioAssay (NCI) are TGI and GI50 values, retold here.

Values joined by “and” are separate entries in the source; they are usually repeats but may differ in a detail not shown here. Equal values may be shown once.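 Tested at 5 concentrations; 48 h exposure; 96-well plates; endpoints linearly interpolated, else capped at highest concentration. The concentration for 50% growth inhibition is given as GI50. The concentration for full growth arrest is given as TGI.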

Some test systems named below: OVCAR-5 ovarian; KM12 colon; COLO 205 colon; SN12C renal; OVCAR-4 ovarian; MALME-3M melanoma; HCT-116 colon; T-47D breast; CAKI-1 renal; OVCAR-8 ovarian; HCC-2998 colon; DU-145 prostate; NCI-H23 lung; HT29 colon; HOP-92 NSCLC; MDA-MB-435; SF-295 CNS; SR leukemia.
What all share (assay): NCI anticancer screen, dose series, 48 h

For `COc1cc(C2C3=C(COC3=O)Oc3cc4c(cc32)OCO4)ccc1OC(C)=O` (stereo not given), the TGI in the experiment on OVCAR-5 ovarian was over 100 µM; in the experiment with KM12 colon, 23.8 µM; in the experiment with COLO 205 colon, 0.602 µM; in the experiment with SN12C renal, over 100 µM; in the experiment on OVCAR-4 ovarian it was over 29.8 µM; in the experiment on MALME-3M melanoma, 0.565 µM. Also, the TGI with HCT-116 colon is over 100 µM; in the experiment on T-47D breast, over 100 µM; in the experiment on CAKI-1 renal it was 0.904 µM; with OVCAR-8 ovarian, over 56.4 µM; in the experiment on HCC-2998 colon it was 5.96 µM; with DU-145 prostate, over 100 µM. In the experiment with NCI-H23 lung, this compound showed a TGI of over 100 µM.

Regarding `CC1=NN(C(=O)c2ccccc2O)C(=O)/C1=C/c1ccccc1O`, the TGI in the experiment on OVCAR-5 ovarian was over 93.8 µM; in the experiment with HT29 colon, over 100 µM; in the experiment on KM12 colon, over 100 µM; in the experiment on COLO 205 colon, over 89.1 µM; in the experiment with SN12C renal, 33.7 µM; with OVCAR-4 ovarian, 68.3 µM. Further, the TGI in the experiment on MALME-3M melanoma is 74.4 µM; with HOP-92 NSCLC, 28.5 µM; in the experiment on HCT-116 colon it was over 29.9 µM; in the experiment with MDA-MB-435 it was over 100 µM; in the experiment on SF-295 CNS, over 100 µM; with T-47D breast, 15.6 µM. Further, the TGI is 65.4 µM in the experiment with SR leukemia; over 27.3 µM in the experiment on CAKI-1 renal; 64.4 µM in the experiment on OVCAR-8 ovarian; 55.6 µM in the experiment with HCC-2998 colon; 20.9 µM in the experiment with NCI-H23 lung.

Regarding `Nc1cn(Cc2ccccc2)c2nc(/C=C3/C=CC=CC3=O)c(O)n12`, the TGI in the experiment with OVCAR-5 ovarian, in the experiment on HT29 colon, in the experiment with KM12 colon, with COLO 205 colon, in the experiment with SN12C renal and in the experiment with OVCAR-4 ovarian was over 100 µM in each case. Moreover, the TGI with MALME-3M melanoma, in the experiment with HOP-92 NSCLC, in the experiment with HCT-116 colon, in the experiment on MDA-MB-435, in the experiment with SF-295 CNS and in the experiment with T-47D breast was over 100 µM each time. The TGI in the experiment with CAKI-1 renal, in the experiment on OVCAR-8 ovarian, with HCC-2998 colon, in the experiment with DU-145 prostate and in the experiment on NCI-H23 lung was over 100 µM each time.

For the compound `O=C1CCC2CCC1C2` (stereo not given), the TGI in the experiment on OVCAR-5 ovarian, in the experiment on HT29 colon, with KM12 colon, in the experiment with COLO 205 colon, in the experiment with SN12C renal and in the experiment with OVCAR-4 ovarian was over 100 µM throughout. The TGI with MALME-3M melanoma, with HCT-116 colon, in the experiment on MDA-MB-435, in the experiment with SF-295 CNS, in the experiment with T-47D breast and in the experiment with CAKI-1 renal was over 100 µM throughout. Further, the TGI with OVCAR-8 ovarian, in the experiment on HCC-2998 colon, in the experiment with DU-145 prostate and with NCI-H23 lung was over 100 µM in each case.

With `COc1cc(NP(=O)(Oc2ccccc2)Oc2ccccc2)ccc1Nc1c2ccccc2nc2c1[nH]c1ccccc12`, the TGI in the experiment on OVCAR-5 ovarian is 30.2 µM; in the experiment on HT29 colon it was 2.96 µM; in the experiment on KM12 colon it was over 100 µM; in the experiment with COLO 205 colon, over 43 µM; with SN12C renal, 2.09 µM; with OVCAR-4 ovarian it was 15.3 µM. Moreover, the TGI in the experiment on MALME-3M melanoma was determined as 29.1 µM; in the experiment on HOP-92 NSCLC, 3.8 µM; with HCT-116 colon, 63.8 µM; with MDA-MB-435, 21.5 µM; with SF-295 CNS, 13.1 µM; with T-47D breast, 12.7 µM. Further, the TGI with CAKI-1 renal came to 17.3 µM; with HCC-2998 colon it was 23.2 µM; in the experiment on DU-145 prostate, 1.56 µM; in the experiment on NCI-H23 lung, 12.3 µM.

As for `CC(=O)N(CCc1ccccc1)C(C#N)c1ccc(OCCCCCCCCCCOc2ccc(C(C#N)N(CCc3ccccc3)C(C)=O)cc2)cc1` (stereo not given), the TGI with OVCAR-5 ovarian is over 100 µM; in the experiment on HT29 colon, over 100 µM; in the experiment on KM12 colon, over 100 µM; in the experiment with COLO 205 colon, over 100 µM; in the experiment on SN12C renal, over 100 µM; in the experiment on OVCAR-4 ovarian, 44.2 µM. The TGI in the experiment on MALME-3M melanoma was over 100 µM; in the experiment on HOP-92 NSCLC, 43.5 µM; in the experiment on HCT-116 colon, over 100 µM; in the experiment with MDA-MB-435 it was over 100 µM; in the experiment with SF-295 CNS, 51.6 µM; in the experiment on T-47D breast, over 100 µM. In addition, the TGI in the experiment with CAKI-1 renal, in the experiment on OVCAR-8 ovarian, in the experiment with HCC-2998 colon, with DU-145 prostate and in the experiment with NCI-H23 lung was over 100 µM in each case.

For the compound `O=C1c2ccccc2-c2ccc(N=Nc3c(O)ccc4ccccc34)cc21`, the TGI in the experiment with OVCAR-5 ovarian, in the experiment on HT29 colon, in the experiment with KM12 colon, in the experiment on COLO 205 colon, in the experiment on SN12C renal and with OVCAR-4 ovarian was over 100 µM throughout. Also, the TGI in the experiment with MALME-3M melanoma, in the experiment on HOP-92 NSCLC, with HCT-116 colon, with MDA-MB-435, in the experiment with SF-295 CNS and in the experiment on T-47D breast was over 100 µM each time. Moreover, the TGI in the experiment on CAKI-1 renal, in the experiment with OVCAR-8 ovarian, with DU-145 prostate and with NCI-H23 lung was over 100 µM throughout.

On to `CCOC(=O)c1c(-c2ccc(O)c(OC)c2)c(C#N)c(=S)n(C2OC(COC(C)=O)C(OC(C)=O)C(OC(C)=O)C2OC(C)=O)c1-c1ccccc1` (stereo not given), for which the TGI in the experiment with OVCAR-5 ovarian, in the experiment on HT29 colon, in the experiment with KM12 colon, with COLO 205 colon, with SN12C renal and with OVCAR-4 ovarian was over 100 µM in each case. Besides, the TGI in the experiment with MALME-3M melanoma is 50.3 µM and > 100 µM; in the experiment with HOP-92 NSCLC, over 100 µM; in the experiment on HCT-116 colon it was over 100 µM; with MDA-MB-435, over 100 µM; with SF-295 CNS, over 100 µM; in the experiment with SR leukemia, over 100 µM. Moreover, the TGI in the experiment with CAKI-1 renal, in the experiment on HCC-2998 colon, in the experiment on DU-145 prostate and in the experiment with NCI-H23 lung was over 100 µM throughout. Also, the GI50 was 20.9 µM and 62.3 µM with MALME-3M melanoma; 35 µM and 90.1 µM with HCC-2998 colon.
